Experimental data taken from US10760110B2, “Antibiotic testing and screening system” (priority 2017, dated 2020).
In brackets after ≈: the same amount, converted by molar mass. Where two headings read alike, the source gives them in different places.

Assays:
[1] = test system: K. pneumoniae NVT1001 and ΔramR strains with tet resistance gene plasmids; test: Etest MIC of tetracyclines, AcrAB-TolC overexpression (ΔramR) and/or tet resistance gene (Table 14); type: cell-based, Klebsiella pneumoniae; details: Klebsiella pneumoniae
Description: DNA fragments of the resistance genes along with their flanking regions were amplified from clinical plasmids via PCR with specific primer pairs. The resulting PCR fragments were digested and then cloned into the plasmid pACYC177 or pACYC184. The resulting plasmids were then transformed into K. pneumoniae strain NVT1001 via electroporation. The recombinant bacteria were plated onto LB agar plates containing kanamycin (50 mg/L) or chloramphenicol (50 mg/L), and the presence of the cloned gene was confirmed via PCR and DNA sequencing.
(§1) The MICs of antibiotics were determined using the Etest (Biodisk AB, Sweden) according to the manufacturer's instructions. The MICs from the Etest, which fall between standard two-fold dilutions, were rounded up to the next highest two-fold value. The MICs of ceftazidime and cefotaxime against K. pneumoniae NVT1001 harbouring the pACYC177 plasmid with blaOXA-48 were further determined using a broth microdilution test according to the recommendations of the CLSI,^25 and the results were interpreted according to the breakpoints established by the CLSI in 2017.^25 Meanwhile, due to the lack of CLSI breakpoints in 2016 and 2017, the results for cephalothin were interpreted according to the breakpoints established by the CLSI in 2015,^26 and the results for moxifloxacin were interpreted according to the breakpoints established by the EUCAST in 2017.^27

[2] = test system: A. baumannii KW1 strains with tet resistance gene plasmids; test: Etest MIC of tetracyclines, tet resistance gene (Table 20); type: cell-based, Acinetobacter baumannii; details: for MIC: Acinetobacter baumannii; for increase in the MIC: production of Tet(A), Tet(B) or Tet(C)
Description: (§2) DNA fragments of the resistance genes along with their flanking regions were amplified from clinical plasmids via PCR with specific primer pairs. The resulting PCR fragments were digested and then cloned into the plasmid pYMAb5 or pYMAb5Tc. The resulting plasmids were then transformed into A. baumannii KW1 via electroporation.
as §1

[3] = test system: K. pneumoniae NVT1001 and its ΔompK35/36 and/or ΔramR mutants; test: Etest MIC, OmpK35/36 loss and AcrAB-TolC overexpression (ΔramR) strains (Table 6); type: cell-based, Klebsiella pneumoniae; details: Klebsiella pneumoniae
Summary of the method: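 Ceftazidime and cefotaxime were tested by CLSI broth microdilution on the blaOXA-48 pACYC177 transformant of NVT1001, using CLSI 2017 breakpoints. Parent, porin-deleted (ΔompK35/36) and ΔramR strains were tested by Etest, with values between two-fold dilutions rounded up.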

[4] = test system: A. baumannii KW1 and its AdeR/AdeS mutants; test: Etest MIC, AdeABC overexpression via AdeR or AdeS mutation (Table 16); type: cell-based, Acinetobacter baumannii
Description: DNA fragments of the entire adeR, adeS, gyrA and parC along with their flanking regions were amplified from A. baumannii KW1 using PCR with specific primer pairs and then cloned into plasmid pUT-KB. The QuikChange site-directed mutagenesis kit (Stratagene) was used to generate mutations in the adeR, adeS, gyrA and parC genes in the plasmids using the methods described by the manufacturer. For homologous recombination, plasmids containing mutations in the adeR, adeS, gyrA or parC gene were transformed into E. coli S17-1 λpir^23 via electroporation and mobilized into A. baumannii KW1 via conjugation. Single-crossover strains were selected from Luria-Bertani (LB) plates supplemented with cefotaxime (1 μg/ml) and kanamycin ([…]), as the growth of non-A. baumannii contaminants is suppressed by cefotaxime (1 μg/ml). The kanamycin-resistant transconjugants were selected and the insertion of plasmids was verified via PCR. After incubation in 20 ml brain heart infusion (BHI) broth for 6 hours in the absence of kanamycin at 37° C., the fully grown cultures were spread onto LB plates supplemented with 10% sucrose. After the double crossover occurred, the sucrose-resistant and kanamycin-susceptible colonies were selected, and the gene mutations were confirmed via PCR.
as §1

[5] = test system: K. pneumoniae NVT1001 ΔramRΔompK35/36 mutant and its revertants; test: Etest MIC, ΔramRΔompK35/36 mutant and its revertants (Table 7); type: cell-based; details: Klebsiella pneumoniae
[6] = test system: A. baumannii KW1 strains with β-lactamase plasmids; test: Etest MIC of β-lactams, extended-spectrum β-lactamase, AmpC β-lactamase or carbapenemase (Table 18); type: cell-based, Acinetobacter baumannii
Description: as §2, §1

[7] = NVT1001, Tet(A) on pACYC177, read-out: MIC
[8] = NVT1001, Tet(B) on pACYC177, read-out: MIC
[9] = NVT1001, Tet(C) on pACYC177, read-out: MIC
[10] = NVT1001, Tet(D) on pACYC177, read-out: MIC
[11] = NVT1001, Tet(M) on pACYC177, read-out: MIC

CN(C)[C@@H]1C(O)=C(C(N)=O)C(=O)[C@@]2(O)C(O)=C3C(=O)c4c(O)cccc4[C@@](C)(O)[C@H]3C[C@@H]12 [Tetracycline, tetracycline]
MIC [1, 7]: > 256 µg/mL
MIC [1, 8]: > 256 µg/mL
MIC [1, 9]: 16 µg/mL
MIC [1, 10]: > 256 µg/mL
MIC [1, 11]: 16 µg/mL
MIC ([1]; ΔramR, Tet(A) on pACYC177): > 256 µg/mL
MIC ([1]; ΔramR, Tet(B) on pACYC177): > 256 µg/mL
MIC ([1]; ΔramR, Tet(C) on pACYC177): 256 µg/mL
MIC ([1]; ΔramR, Tet(D) on pACYC177): > 256 µg/mL
MIC ([1]; ΔramR, Tet(M) on pACYC177): 128 µg/mL
MIC ([2]; KW1, Tet(A) on pYMAb5): 128 µg/mL
MIC ([2]; KW1, Tet(B) on pYMAb5): > 256 µg/mL
MIC ([2]; KW1, Tet(M) on pYMAb5): 48 µg/mL
MIC ([2]; KW1, no supplemental plasmid): 3 µg/mL
MIC ([2]; KW1 with shuttle vector pYMAb5): 3 µg/mL
increase in the MIC [2]: 4 fold
MIC ([3]; Δ36, ΔompK36 mutant): 2 µg/mL (≈ 4.5 µM)
MIC ([4]; Acinetobacter baumannii, A91V mutant (AdeR)): 12 µg/mL
MIC ([4]; Acinetobacter baumannii, A94V mutant (AdeS)): 6 µg/mL
MIC ([4]; Acinetobacter baumannii, D20N mutant (AdeR)): 8 µg/mL
MIC ([4]; Acinetobacter baumannii, G30D mutant (AdeS)): 8 µg/mL
MIC ([4]; Acinetobacter baumannii, KW1, read-out: MIC): 3 µg/mL
MIC ([4]; Acinetobacter baumannii, P116L mutant (AdeR)): 6 µg/mL
MIC ([4]; Acinetobacter baumannii, R152K mutant (AdeS)): 6 µg/mL
MIC ([4]; Acinetobacter baumannii, T153M mutant (AdeS)): 8 µg/mL

CN(C)c1ccc(O)c2c1C[C@H]1C[C@H]3[C@H](N(C)C)C(O)=C(C(N)=O)C(=O)[C@@]3(O)C(O)=C1C2=O [Minocycline]
MIC [1, 7]: 32 µg/mL
MIC [1, 8]: 32 µg/mL
MIC [1, 9]: 4 µg/mL
MIC [1, 10]: 128 µg/mL
MIC [1, 11]: 32 µg/mL
MIC ([1]; NVT1001, no supplemental plasmid, read-out: MIC): 4 µg/mL
MIC ([1]; ΔramR, Tet(A) on pACYC177): > 256 µg/mL
MIC ([1]; ΔramR, Tet(B) on pACYC177): > 256 µg/mL
MIC ([1]; ΔramR, Tet(C) on pACYC177): 64 µg/mL
MIC ([1]; ΔramR, Tet(D) on pACYC177): > 256 µg/mL
MIC ([1]; ΔramR, Tet(M) on pACYC177): > 256 µg/mL
MIC ([1]; ΔramR, no supplemental plasmid): 64 µg/mL
MIC ([2]; KW1, Tet(A) on pYMAb5): 1.5 µg/mL
MIC ([2]; KW1, Tet(B) on pYMAb5): 1.5 µg/mL
MIC ([2]; KW1, Tet(M) on pYMAb5): 2 µg/mL
MIC ([2]; KW1, no supplemental plasmid): 0.38 µg/mL
MIC ([2]; KW1 with shuttle vector pYMAb5): 0.25 µg/mL
increase in the MIC [2]: 4 fold
MIC ([5]; ΔramRΔompK35/36::ompK35/36 revertant): 128 µg/mL
MIC ([5]; ΔramRΔompK35/36::ompK35 revertant): 128 µg/mL
MIC ([5]; ΔramRΔompK35/36::ompK36 revertant): 128 µg/mL
MIC ([5]; ΔramRΔompK35/36::ramR revertant): 4 µg/mL
MIC ([5]; ΔramRΔompK35/36::ramR::ompK35/36 revertant): 4 µg/mL
MIC ([5]; ΔramRΔompK35/36::ramR::ompK35 revertant): 4 µg/mL
MIC ([5]; ΔramRΔompK35/36::ramR::ompK36 revertant): 4 µg/mL
MIC ([5]; ΔramRΔompK35/36 mutant): 128 µg/mL
MIC ([3]; WT, NVT1001, read-out: MIC): 4 µg/mL (≈ 8.74 µM)
MIC ([3]; Δ35, ΔompK35 mutant): 4 µg/mL (≈ 8.74 µM)
MIC ([3]; Δ35/36, ΔompK35/36 mutant): 4 µg/mL (≈ 8.74 µM)
MIC ([3]; Δ36, ΔompK36 mutant): 4 µg/mL (≈ 8.74 µM)
MIC ([3]; ΔramR mutant): 64 µg/mL (≈ 140 µM)
MIC ([3]; ΔramRΔ35, ΔramRΔompK35 mutant): 128 µg/mL (≈ 280 µM)
MIC ([3]; ΔramRΔ35/36, ΔramRΔompK35/36 mutant): 128 µg/mL (≈ 280 µM)
MIC ([3]; ΔramRΔ36, ΔramRΔompK36 mutant): 128 µg/mL (≈ 280 µM)

CC(C)(O/N=C(\C(=O)N[C@@H]1C(=O)N2C(C(=O)[O-])=C(C[n+]3ccccc3)CS[C@H]12)c1csc(N)n1)C(=O)O [CAZ]
MIC ([4]; A91V mutant (AdeR)): 16 µg/mL
MIC ([4]; A94V mutant (AdeS)): 8 µg/mL
MIC ([4]; D20N mutant (AdeR)): 12 µg/mL
MIC ([4]; G30D mutant (AdeS)): 8 µg/mL
MIC ([4]; KW1): 4 µg/mL
MIC ([4]; P116L mutant (AdeR)): 8 µg/mL
MIC ([4]; R152K mutant (AdeS)): 8 µg/mL
MIC ([4]; T153M mutant (AdeS)): 8 µg/mL
MIC ([6]; KW1, no supplemental plasmid): 4 µg/mL
MIC ([6]; KW1 with ADC-30 on pYMAb5): >256 µg/mL
MIC ([6]; KW1 with CTX-M-15 on pYMAb5): >256 µg/mL
MIC ([6]; KW1 with IMP-1 on pYMAb5): 48 µg/mL
MIC ([6]; KW1 with NDM-1 on pYMAb5): >256 µg/mL
MIC ([6]; KW1 with OXA-23 on pYMAb5): 3 µg/mL
MIC ([6]; KW1 with OXA-58 on pYMAb5): 3 µg/mL
MIC ([6]; KW1 with OXA-66 on pYMAb5): 3 µg/mL
MIC ([6]; KW1 with OXA-72 on pYMAb5): 3 µg/mL
MIC ([6]; KW1 with VEB-3 on pYMAb5): >256 µg/mL
MIC ([6]; KW1 with VIM-1 on pYMAb5): >256 µg/mL
MIC ([6]; KW1 with shuttle vector pYMAb5): 3 µg/mL
